From publication PMC10872342, “9S1R nullomer peptide induces mitochondrial pathology, metabolic suppression, and enhanced immune cell infiltration, in triple-negative breast cancer mouse model” (Biomedicine & pharmacotherapy = Biomedecine & …, 2023)
Entries after “also recorded” stand apart in the source; their conditions may differ. Ends that are not written are not given here.

Experiments:
4T1.2 cells = assay: LC-MS detection of peptide internalization within cells; type: cell-based, mouse; settings: 50uM, 2h, PBS wash, lysis, 3KDa filter, 3+ and 4+ forms
Method: Supplementary Fig 1: Detection of peptide internalization and stability within cells. (A) LC-MS Graph showing peak of peptide only spike at 1mg/ml final concentration (positive control) (B) Sample-1: 2 × 10^5 4T1.2 cells lysate was filtered through a 3KDa cut-off Amicon protein filters (Millipore) to get rid of proteins larger than 3KDa, followed by LC-MS detection (negative control). (C) Sample-2: 2 × 10^5 4T1.2 cells lysate (50ul) was mixed with the peptide at 1mg/ml final concentration and incubated for 30 mins followed by filtering through 3 KDa cut-off filter and LC-MS detection. (D) Sample-3: 50 ul of filtered cell lysate or Sample-1 was mixed with the peptide at 1mg/ml final concentration and incubated for 30 mins followed by LC-MS detection. (E) Sample-4: Cells were treated with 50uM of peptide and incubated for 2h followed by washing in PBS, lysis, passing through 3KDa protein filter, and detection by LC-MS. […] (G) Enlarged peaks from- C, Sample-2 with (H) extracted ion chromatogram (EIC) peaks of the detected peptide at the exact 3+ and 4+ valance forms (red circles). (I) Enlarged peaks from- E, Sample-4 with (J) extracted ion chromatogram (EIC) peaks of the detected peptide at the exact 3+ and 4+ valance forms (red circles).

[1] = Half-life of peptide 9S1R in serum; type: in vitro ADME; settings: bovine, fetal bovine serum; peptide spiked into FBS, 37 °C, exposure 30 s, 5, 30, 60, 90 min; 75% ice cold acetonitrile precipitation; HPLC-QTOF MS, log2 EIC peak area vs time; read-out: half-life (t1/2) in fetal bovine serum
Method: The half-life of peptide 9S1R was determined by spiking the peptide into fetal bovine serum (FBS) for exposure times of 30 s and 5, 30, 60 or 90 min. During the exposure, FBS containing the spike peptides were incubated at 37 °C. The exposure was halted, and the peptide was extracted from FBS using protein precipitation. Protein precipitation was accomplished using 75% ice cold acetonitrile, followed by incubation at − 20 °C for one hour, and centrifugation at 9000 rpm for 10 min at […]. The supernatant was removed and saved for analysis. Peptide samples were analyzed by High pressure liquid chromatography (HPLC) mass spectrometry (MS) using an ultra-high-resolution Quadrupole Time of Flight (QTOF) instrument (Bruker maxis, Bruker Corporation, Billerica, MA, USA). HPLC mobile phase consisted of 18 MΩ H2O and HPLC grade formic acid and acetonitrile (> 99% purity, Fisher Scientific, Pittsburgh, PA, USA). The electrospray ionization (ESI) source was operated under the following conditions: positive ion mode; nebulizer pressure: 1.2 Bar; flow rate of drying gas (N2): 8 L/min; drying gas temperature: 200 °C; voltage between HV capillary and HV end-plate offset: 3000 V to – 500 V; mass range was set from 250 to 2900 m/z; and the quadrupole ion energy was 4.0 eV. […]

[2] = tested on: 4T1.2-Luc TNBC tumors in Balb/c mice; assay: 4T1.2-Luc orthotopic TNBC mouse model, unilateral tumors, eight IP doses; type: in vivo; settings: trehalose only group, H&E scoring
Text: (§1) The model was created by orthotopically injecting 4T1.2-Luc cells in the 4th mammary fat pad of Balb/c mice, with 1 × 10^5 cells per mouse. The cell line was developed by Dr. Cheryl L. Jorcyk and expresses the luciferase gene which serves as a luminescent indicator of gene expression or tumorigenesis, making the tumor cell traceable in vivo. Treatment started after the formation of palpable tumors and was detected by in vivo BLI (IVIS, Perkin Elmer) followed by randomization of the animals per group. For evaluating the effect of the peptides on this model, we carried out two separate studies. […]
Mice were anesthetized by isoflurane followed by measurement of the tumor length and width using a manual Vernier caliper. This was performed before every drug administration and the tumor volume was calculated using the formula (length × width^2)/2. Body weights were also measured before every dose of the drug.
Whole-body bioluminescence imaging (BLI) using the In Vivo Imaging System (IVIS® Spectrum, Perkin Elmer) was performed to detect in vivo tumor burden and metastasis, as evaluated by the bioluminescence signal from the 4T1.2-Luc cells. […] The images were analyzed by Perkin Elmer software and Aura Version 4.0.7 (Spectral instruments Imaging). […]

[3] = tested on: 4T1.2-Luc TNBC tumors in Balb/c mice; assay: Pilot study, 4T1.2-Luc bilateral mammary tumor model, six IP doses; type: in vivo, mouse; settings: study-1, trehalose only group
Text: as §1, with “studies. The first pilot study involved a set of 4 mice per group with bilateral mammary tumors, which received six IP administration of PBS, 9S1R-NulloPT drug at 50 mg/kg, 100 mg/kg body weight or Trehalose, over a period of 2 weeks. The present study includes a set of 7–9 mice per group with unilateral tumors including the same groups as in the pilot study, but received a total of eight injections per mouse over a period of 2 weeks.” for “studies.”
Supplementary Fig 2: Detailed results from pilot first study with six IP administration of PBS (control), Trehalose, 50mg/kg NulloPT and 100 mg/kg NulloPT in TNBC mice. […] Treatment started after the formation of palpable tumors and was detected by an in vivo BLI system (IVIS, Perkin Elmer) followed by randomization of the animals per group. […]

Compound | uptake of native untagged peptide inside cells by mass spectrometry (4T1.2 cells) | half-life [1] [min] | immune cell infiltration or margin inflammation on the tumors [2] | tumor size with trehalose alone [3]
RRRRRWCMNW [9S1R] | detected inside cells in two forms; also recorded: available inside the cells | 8.7 | – | –
OC[C@H]1O[C@H](O[C@H]2O[C@H](CO)[C@@H](O)[C@H](O)[C@H]2O)[C@H](O)[C@@H](O)[C@@H]1O [Trehalose] | – | – | did not show any effect | higher than control tumor size
